Some test systems named below: ACHN; BT-549; CCRF-CEM; EKVX; HCT-15; HL-60; Hs-578T; IGROV-1; M14; MDA-MB-435; NCI/ADR-RES; OVCAR-5; RXF 393; SF-295; SK-MEL-28; SK-MEL-5; TK-10; HCC 2998; MDA-N.
What all share (assay): DTP human tumour cell line panel, 48 h

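Briefly, cells in 96-well plates were exposed to five compound concentrations for 48 h, and endpoints were estimated by linear interpolation. Abbreviation: GI50, concentration required for 50% inhibition of growth.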 Calls of active or inactive are those of the source. Rule as the data show it: active = GI50 up to about 1.1 µM and inactive = higher.

Consider `CN(Cc1cc(Cl)cc(Cl)c1)CC(C(=O)c1ccccc1)c1ccccc1` (stereo unspecified), for which the GI50 in the test with ACHN was 0.445 µM (active); in the test on BT-549, 3.06 µM (inactive); in the test on CCRF-CEM, < 0.0439 µM (active); in the test on EKVX, 16.7 µM (inactive); in the test with HCT-15, 0.368 µM; in the test on HL-60, 1.65 µM (inactive). For the same molecule, the GI50 in the test on Hs-578T is 3.15 µM (inactive); with IGROV-1 it was 26.7 µM (inactive); with M14, 2.98 µM (inactive); with MDA-MB-435, 3.61 µM (inactive); in the test with NCI/ADR-RES, 1.57 µM (inactive); in the test on OVCAR-5, 6.21 µM (inactive). Further, the GI50 in the test with RXF 393 is 4 µM (inactive); with SF-295, 27 µM (inactive); in the test on SK-MEL-28 it was 2.9 µM (inactive); with SK-MEL-5 it was 10.5 µM (inactive); in the test on TK-10, 6.37 µM (inactive).
In the case of `C=CCC(SC)C1=C(C)C(=O)c2ccccc21` (stereo unspecified), the GI50 is > 10 µM (inactive) in the test on ACHN; > 10 µM (inactive) with BT-549; 6.55 µM (inactive) in the test with CCRF-CEM; > 10 µM (inactive) in the test with EKVX; > 10 µM (inactive) with HCC 2998; more than 10 µM with HCT-15. Besides, the GI50 with IGROV-1, in the test with M14, in the test on MDA-MB-435, in the test on MDA-N, in the test with OVCAR-5 and with RXF 393 was > 10 µM (inactive) each time. Besides, the GI50 with SF-295, with SK-MEL-28, in the test on SK-MEL-5 and in the test with TK-10 was > 10 µM (inactive) each time.
As for `O=C(OCC(Cl)(Cl)Cl)N1CC[C@@H](C2CCCCC2)C1`, the GI50 with ACHN was 22.8 µM (inactive); in the test on BT-549, 38.2 µM (inactive); with CCRF-CEM, 21.5 µM (inactive); in the test with EKVX, 23.1 µM (inactive); in the test on HCC 2998 it was 18.6 µM (inactive); in the test with HCT-15, 18.7 µM. For the same molecule, the GI50 in the test on IGROV-1 was 75.5 µM (inactive); with M14, 34.8 µM (inactive); with MDA-MB-435, < 0.01 µM (active); in the test on MDA-N it was 31 µM (inactive); in the test with NCI/ADR-RES, 18 µM (inactive); with OVCAR-5 it was 23.7 µM (inactive). For the same molecule, the GI50 with RXF 393 was 18.3 µM (inactive); in the test with SF-295, 19 µM (inactive); in the test on SK-MEL-5 it was 18.1 µM (inactive); with TK-10 it was 30.1 µM (inactive).
As for `O=C(O)c1nc2ccccc2nc1Nc1ccc(F)cc1`, the GI50 in the test with ACHN is 26.9 µM (inactive); in the test with BT-549, 44.3 µM (inactive); with CCRF-CEM, 29.8 µM (inactive); with EKVX, 36.4 µM (inactive); in the test on HCC 2998 it was 32.1 µM (inactive); with HCT-15, 26.7 µM. Further, the GI50 in the test on HL-60 is 25.7 µM (inactive); in the test with Hs-578T, 29.2 µM (inactive); with IGROV-1, 37.4 µM (inactive); in the test with M14, 25.5 µM (inactive); with MDA-MB-435 it was 34.8 µM (inactive); in the test with NCI/ADR-RES, 36.8 µM (inactive). The GI50 with OVCAR-5 is 56.4 µM (inactive); in the test with RXF 393, 14.5 µM (inactive); with SF-295 it was 24 µM (inactive); in the test on SK-MEL-28, 36.4 µM (inactive); in the test on SK-MEL-5 it was 21.6 µM (inactive); in the test with TK-10, 34.5 µM (inactive).
With `Cc1cc2c(c(/C=N/Cc3ccccc3)c1)OC1(C=C2)Oc2ccccc2C(=O)N1C` (stereo unspecified), the GI50 in the test on ACHN is 20.7 µM (inactive); with BT-549, 23.5 µM (inactive); in the test on CCRF-CEM, 11.6 µM (inactive); with EKVX, 15.3 µM (inactive); with HCC 2998, 27.1 µM (inactive); with HCT-15, 19.6 µM. The GI50 with HL-60 is 21 µM (inactive); with Hs-578T it was 18.3 µM (inactive); with IGROV-1, 22 µM (inactive); in the test with M14, 23.2 µM (inactive); with MDA-MB-435, 28.7 µM (inactive); in the test on NCI/ADR-RES, 20.2 µM (inactive). For the same molecule, the GI50 with OVCAR-5 is 21.4 µM (inactive); with RXF 393 it was 20 µM (inactive); in the test with SF-295 it was 29.6 µM (inactive); in the test with SK-MEL-28 it was 29.8 µM (inactive); with SK-MEL-5, 19.9 µM (inactive); in the test on TK-10, 26 µM (inactive).
On to `COc1cc(C2SC(=N)Nc3c2c(C)nn3C(=O)Cc2ccccc2)ccc1O` (stereo unspecified), for which the GI50 is > 100 µM (inactive) with ACHN; > 100 µM (inactive) in the test with BT-549; > 100 µM (inactive) in the test with CCRF-CEM; > 100 µM (inactive) with EKVX; > 100 µM (inactive) with HCC 2998; more than 100 µM in the test with HCT-15. The GI50 with HL-60, with Hs-578T, with IGROV-1, with M14, in the test with MDA-MB-435 and with MDA-N was > 100 µM (inactive) each time. For the same molecule, the GI50 in the test with SF-295, in the test with SK-MEL-28, in the test on SK-MEL-5 and in the test on TK-10 was > 100 µM (inactive) each time.
Consider `N#Cc1c(-c2ccccc2)c(/C=N/c2cccc(C(F)(F)F)c2)c(=O)n2c1[nH]c1ccccc12`, for which the GI50 was 30.1 µM (inactive) with ACHN; 48 µM (inactive) in the test on BT-549; 40.4 µM (inactive) in the test with CCRF-CEM; 19.1 µM (inactive) in the test with EKVX; 30.8 µM (inactive) with HCC 2998; 33 µM in the test with HCT-15. In addition, the GI50 in the test with IGROV-1 was 29.2 µM (inactive); in the test on M14, 32.3 µM (inactive); with MDA-MB-435, 39.5 µM (inactive); in the test with MDA-N, 28 µM (inactive); in the test with NCI/ADR-RES, 25.1 µM (inactive); in the test with OVCAR-5, 10.8 µM (inactive). In addition, the GI50 in the test with RXF 393 was 32.8 µM (inactive); in the test with SF-295, 46.2 µM (inactive); with SK-MEL-28, 59 µM (inactive); with SK-MEL-5 it was 52 µM (inactive); in the test with TK-10, 32.9 µM (inactive).
With `c1ccc(/N=C(\N2CCCC2)N(CCN2CCCC2)c2ccccc2)cc1`, the GI50 in the test on ACHN was 40 µM (inactive); in the test on BT-549 it was 15.6 µM (inactive); in the test with CCRF-CEM, 5.93 µM (inactive); in the test on EKVX, 73.3 µM (inactive); with HCT-15, 22.1 µM; in the test with HL-60, 2.91 µM (inactive). The GI50 with Hs-578T was 18.9 µM (inactive); with IGROV-1, 24.9 µM (inactive); with M14 it was 8.34 µM (inactive); with MDA-MB-435, 7.67 µM (inactive); with NCI/ADR-RES it was 37 µM (inactive); in the test with OVCAR-5 it was 29.6 µM (inactive). For the same molecule, the GI50 in the test with SF-295 is 6.32 µM (inactive); in the test on SK-MEL-28 it was > 100 µM (inactive); with SK-MEL-5, 12.2 µM (inactive); with TK-10 it was 30.8 µM (inactive).
Take `Cc1cccc(Cl)c1NC(=O)/C=C/c1ccccc1`: the GI50 in the test on ACHN was 42.3 µM (inactive); with BT-549 it was > 100 µM (inactive); in the test with CCRF-CEM, > 100 µM (inactive); with EKVX, 49.2 µM (inactive); with HCC 2998, 74.6 µM (inactive); with HCT-15 it was more than 100 µM. For the same molecule, the GI50 is 84.1 µM (inactive) in the test with HL-60; 33 µM (inactive) in the test on Hs-578T; 97.5 µM (inactive) in the test with IGROV-1; > 100 µM (inactive) in the test on M14; > 100 µM (inactive) with MDA-MB-435; > 100 µM (inactive) in the test with MDA-N. Moreover, the GI50 in the test with OVCAR-5 was > 100 µM (inactive); with SF-295 it was 36.6 µM (inactive); in the test on SK-MEL-28, > 100 µM (inactive); in the test on SK-MEL-5, 95.5 µM (inactive); with TK-10 it was 40.6 µM (inactive).
Take `Cc1cccc(C)c1NC(=O)/C=C/c1ccccc1`: the GI50 is 15.4 µM (inactive) in the test with ACHN; > 100 µM (inactive) in the test with BT-549; > 100 µM (inactive) in the test on CCRF-CEM; 67 µM (inactive) in the test with EKVX; > 100 µM (inactive) in the test on HCC 2998; more than 100 µM in the test with HCT-15. Further, the GI50 was > 100 µM (inactive) in the test with HL-60; 24.6 µM (inactive) with Hs-578T; > 100 µM (inactive) in the test on M14; > 100 µM (inactive) in the test with MDA-MB-435; > 100 µM (inactive) in the test with MDA-N; > 100 µM (inactive) with OVCAR-5. Also, the GI50 is 88.5 µM (inactive) in the test on SF-295, > 100 µM (inactive) in the test with SK-MEL-28, > 100 µM (inactive) in the test on SK-MEL-5 and > 100 µM (inactive) with TK-10.
For the molecule `COC(=O)[C@H]1NC(=O)CCSSC1(C)C`, the GI50 was > 100 µM (inactive) with ACHN; > 100 µM (inactive) in the test with BT-549; > 100 µM (inactive) in the test on CCRF-CEM; > 100 µM (inactive) with EKVX; more than 100 µM in the test on HCT-15; > 100 µM (inactive) with HL-60. In addition, the GI50 in the test on Hs-578T, in the test on IGROV-1, in the test on M14, in the test on MDA-MB-435, with NCI/ADR-RES and in the test on OVCAR-5 was > 100 µM (inactive) each time. Also, the GI50 in the test with RXF 393, with SF-295, in the test on SK-MEL-28, with SK-MEL-5 and in the test on TK-10 was > 100 µM (inactive) each time.
Take `O=C(Nc1ccccc1)c1cc2ccccc2c(/N=N/c2ccc([N+](=O)[O-])cc2)c1O`: the GI50 with ACHN is > 100 µM (inactive); with BT-549 it was 44.3 µM (inactive); with CCRF-CEM, 4.85 µM (inactive); in the test with EKVX it was > 100 µM (inactive); with HCT-15, more than 100 µM; with HL-60 it was 1.14 µM (inactive). Also, the GI50 with Hs-578T is 55.1 µM (inactive); with IGROV-1, > 100 µM (inactive); in the test on M14, > 100 µM (inactive); in the test with MDA-MB-435 it was > 100 µM (inactive); in the test with NCI/ADR-RES, > 100 µM (inactive); with OVCAR-5, > 100 µM (inactive). Moreover, the GI50 in the test with RXF 393 was 82.4 µM (inactive); in the test on SF-295, 38.7 µM (inactive); in the test on SK-MEL-28, > 100 µM (inactive); in the test with SK-MEL-5 it was > 100 µM (inactive); in the test on TK-10, 56.1 µM (inactive).

For orientation: GI50 means the concentration that inhibits growth by half.

These data come from ChEMBL document CHEMBL1201862, “PubChem BioAssay data set” (2004).
